Measured values: patent publication US9592225B2, “Crystalline N-[5-(aminosulfonyl)-4-methyl-1,3-thiazol-2-yl]-N-methyl-2-[4-(2-pyridinyl)phenyl]acetamide mono mesylate monohydrate having a specific particle size distribution range and a specific surface area range for use in pharmaceutical formulations” (AICURIS ANTI-INFECTIVE CURES GMBH, priority 2011, dated 2017)

Columns and labels:
[1] = system: HSV; test: Murine HSV skin infection model; format: in vivo; conditions: oral doses of 5 mg/kg or higher once daily for four days; data not shown
Procedure: To assess the pharmacokinetic/pharmacodynamic profile the effective dose of the free base of N-[5-(aminosulfonyl)-4-methyl-1,3-thiazol-2-yl]-N-methyl-2-[4-(2-pyridinyl)phenyl]-acetamide was validated in a murine HSV skin infection model and associated plasma concentrations were determined (data not shown).
(§1) In healthy male volunteers these plasma concentrations were covered by a single dose of 40 mg as free base equivalent to the crystalline mono mesylate monohydrate salt of N-[5-(aminosulfonyl)-4-methyl-1,3-thiazol-2-yl]-N-methyl-2-[4-(2-pyridinyl)phenyl]acetamide (see FIG. 10) and at steady state by daily doses of 25 mg as free base equivalent (see FIG. 11) for 21 days.

[2] = Safety and tolerability in phase I trials; format: in vivo, human; conditions: healthy male volunteers, single and multiple dose, up to the highest dose tested
Procedure: The results were compared with the effective concentration of the free base of N-[5-(aminosulfonyl)-4-methyl-1,3-thiazol-2-yl]-N-methyl-2-[4-(2-pyridinyl)phenyl]acetamide in cell culture and correlated to exposures reached in healthy male volunteers in single and multiple dose phase I trials (see FIGS. 9-13).
as §1

[3] = Single-dose escalation and pharmacokinetics in human volunteers; format: in vivo
Description: Exposure of the free base form of N-[5-(aminosulfonyl)-4-methyl-1,3-thiazol-2-yl]-N-methyl-2-[4-(2-pyridinyl)-phenyl]acetamide to the human body may be measured by high pressure liquid chromatography (HPLC) by looking at different pharmacokinetic parameters in suitable bodily fluids such as for instance blood plasma and urine, the most common parameters being the Cmax, the so-called area under the curve (AUC), and the terminal half-life (t1/2Z). Hereto, the person skilled in the art understands that said parameters are determined by using adequate bioanalytical methods with adequate sensitivity, specificity, ruggedness, stability and repeatability, as for instance a qualified liquid chromatography triple quad mass spectrometry based method coupled with a suitable extraction method for the separation of the analyte from, e.g. the blood plasma.
Therefore, pharmacokinetic studies in human subjects were undertaken following both single and multiple dose administrations of the crystalline mono mesylate monohydrate salt of N-[5-(aminosulfonyl)-4-methyl-1,3-thiazol-2-yl]-N-methyl-2-[4-(2-pyridinyl)phenyl]-acetamide, wherein the particle size distribution is preferably defined by d(0.1) from 2 to 100 μm, d(0.5) from 30 to 210 μm and d(0.9) from 70 to 400 μm with a specific surface area of the particles less than 1.0 m^2/g, and more preferably defined by d(0.1) from 10 to 75 μm, d(0.5) from 100 to 175 μm, d(0.9) from 200 to 350 μm with a specific surface area of the particles less than 0.3 m^2/g.
Single oral doses of the crystalline mono mesylate monohydrate salt of N-[5-(aminosulfonyl)4methyl1,3thiazol-2-yl]-N-methyl-2-[4-(2-pyridinyl)phenyl]acetamide using the formulations according to example 2, Table 2, were administered to six volunteers per dose step. The overall shape of the plasma concentrations vs. time profiles were similar across all doses (see FIG. 9 and FIG. 12). […]
AUC0-∞: Area under the analyte vs. time concentration from time of administration up to infinity, calculated as
[formula] wherein A0-last is defined as the area under the analyte vs. time concentration up to time of the last qualifiable concentration, calculated by linear up/log down summation and Clast is defined as last quantifiable observed analyte concentration. λz is the apparent terminal elimination rate constant, determined by linear regression of terminal points of In-linear analyte concentration-time curve.
Cmax is the maximal observed analyte concentration and tmax is the time to reach Cmax; t1/2z is defined as the apparent terminal elimination half-life, calculated as
MRT: Mean Residence Time; calculated AUMC divided by AUC, wherein AUMC is the area under the first moment of the concentration-time curve from zero up to ∞ with extrapolation of the terminal phase and AUC is the area under the concentration-time curve from zero up to ∞ with extrapolation of the terminal phase. […]

[4] = Multiple-dose escalation and steady-state pharmacokinetics in healthy volunteers; format: in vivo, human; conditions: for AUGτ: day 21 steady state, n=12
Description: For the three doses of the mono mesylate monohydrate salt of N-[5-(aminosulfonyl)-4-methyl-1,3-thiazol-2-yl]-N-methyl-2-[4-(2-pyridinyl)phenyl]acetamide in formulation according to example 1, Table 2, wherein the particle size distribution is preferably defined by d(0.1) from 2 to 100 μm, d(0.5) from 30 to 210 μm and d(0.9) from 70 to 400 μm with a specific surface area of the particles less than 1.0 m^2/g, and more preferably defined by d(0.1) from 10 to 75 μm, d(0.5) from 100 to 175 μm, d(0.9) from 200 to 350 μm with a specific surface area of the particles less than 0.3 m^2/g, investigated (5, 25, and 100 mg as free base equivalent; once per day oral administration, […]), the individual concentration-time curves of the free base N-[5-(aminosulfonyl)-4-methyl-1,3-thiazol-2-yl]Nmethyl-2-[4-(2-pyridinyl)phenyl]acetamide at day 1 (after the first administration) were very similar in their general shape and slope to those profiles obtained in the single dose escalation trial (see Example 6).
At steady state, there was a low inter-individual variability of minimal or “trough” concentrations with CVs (coefficient of variations) between 16.7 and 21.7% (day 21). For all doses, the individual and mean concentration-time curves of the free base of N-[5-(aminosulfonyl)-4-methyl-1,3-thiazol-2-yl]-N-methyl-2-[4-(2-pyridinyl)phenyl]acet-amide at day 21 were very similar in their shape and slope to those profiles obtained at day 1.
Table 10: Steady state pharmacokinetic parameters of the free base N-[5-(aminosulfonyl)-4-methyl-1,3-thiazol-2-yl]-N-methyl-2-[4-(2-pyridinyl)phenyl]acetamide at day 21 after daily administrations of 5, 25, or 100 mg as free base equivalent of the mono mesylate monohydrate salt of N-[5-(aminosulfonyl)-4-methyl-1,3-thiazol-2-yl]-N-methyl-2-[4-(2-pyridinyl)phenyl]acetamide in formulation according to example 2, Table 2, wherein the particle size distribution is preferably defined by d(0.1) from 2 to 100 μm, d(0.5) from 30 to 210 μm and d(0.9) from 70 to 400 μm with a specific surface area of the particles less than 1.0 m^2/g, and more preferably defined by d(0.1) from 10 to 75 μm, d(0.5) from 100 to 175 μm, d(0.9) from 200 to 350 μm with a specific surface area of the particles less than 0.3 m^2/g, to healthy volunteers (n=12 per dose).

[5] = Thermostability; format: physicochemical; conditions: compared to the mesylate salt
Description: A clear advantage of the N-[5-(aminosulfonyl)-4-methyl-1,3-thiazol-2-yl]-N-methyl-2-[4-(2-pyridinyl)phenyl]acetamide mono mesylate monohydrate, wherein the PSD, PSR and SSA are as defined herein, is its proven long-term stability. Therefore, the inventive N-[5-(aminosulfonyl)-4-methyl-1,3-thiazol-2-yl]-N-methyl-2-[4-(2-pyridinyl)-phenyl]acetamide mono mesylate monohydrate, which is characterized by the PSD, PSR and SSA as disclosed herein, is better suited for the preparation of long-term stable tablets compared to the free base form of N-[5-(aminosulfonyl)-4-methyl-1,3-thiazol-2-yl]-N-methyl-2-[4-(2-pyridinyl)phenyl]acetamide.

| Compound | suppression of murine HSV skin infection [1] | safety and tolerability [2] | gender-related difference in exposure ([3]; single dose of 80 mg as free base equivalent, after normalization to body weight) | relation of maximum plasma concentrations to dose ([3]; single doses from 5 mg to 400 mg as free base equivalent) | relation of AUC0-∞ to dose ([3]; single doses from 5 mg to 480 mg as free base equivalent) | mean maximum blood plasma concentration (mean Cmax) of the free base ([3]; single oral dose 480 mg as free base equivalent) | AUC0-∞ ([3]; single oral dose 600 mg free base equivalent, mean, n=6) | AUGτ ([4]; human, 5 mg free base equivalent once daily oral) | AUGτ ([4]; human, 25 mg free base equivalent once daily oral) | AUGτ ([4]; human, 100 mg free base equivalent once daily oral) | relation of steady-state exposure (Ctrough, AUCτ, Cmax,ss, Cav) to dose ([4]; human, 5, 25, 100 mg once daily) | relation of AUC0-24 h and Cmax at day 1 to dose ([4]; human, 5, 25, 100 mg, after the first administration) | accumulation ratio R for both AUC and Cmax ([4]; human, all doses applied (5, 25, 100 mg once daily)) | thermostability [5] |
| --- | --- | --- | --- | --- | --- | --- | --- | --- | --- | --- | --- | --- | --- | --- |
| Cc1nc(N(C)C(=O)Cc2ccc(-c3ccccn3)cc2)sc1S(N)(=O)=O [free base, N-[5-(aminosulfonyl)-4-methyl-1,3-thiazol-2-yl]-N-methyl-2-[4-(2-pyridinyl)phenyl]acetamide] | completely suppressed the murine infection | safe and well tolerated |  |  |  |  |  |  |  |  |  |  |  |  |
| CS(=O)(=O)O.Cc1nc(N(C)C(=O)Cc2ccc(-c3ccccn3)cc2)sc1S(N)(=O)=O [mono mesylate monohydrate, N-[5-(aminosulfonyl)-4-methyl-1,3-thiazol-2-yl]-N-methyl-2-[4-(2-pyridinyl)-phenyl]acetamide mono methanesulfonic acid monohydrate] |  |  | No clinical relevant gender-related difference | linearly related to doses | dose-proportional increase | 6921 ± 2190 ng/mL | 320800 ng·h/mL | 5094 ng·h/mL | 23430 ng·h/mL | 108800 ng·h/mL | dose-proportional increase | dose-proportional increases | ~5 | up to 170 °C |
